In assay [1] the test system is tumor cell Hsp90 complexes (SKBr3 human breast cancer lysate). The assay is described as follows: Hsp90 fluorescence polarization competition assay (GM-cy3B displacement) in SKBr3 cancer-cell lysate. It counts as binding. Conditions: read-out: Affinity for Hsp90 (FP). An excerpt: The fraction of tracer bound to Hsp90 was correlated to the mP value and plotted against values of competitor concentrations. The inhibitor concentration at which 50% of bound GM was displaced was obtained by fitting the data.

The test system of a further assay is K562 cells. The assay is described as follows: Growth inhibition assay (Alamar Blue). It counts as cell-based. The settings on record: Homo sapiens, K562, 72 h, read-out: IC50 Growth inhibition. From the text: Having shown that each of the prepared biotinylated molecules retained good affinity for Hsp90, we next evaluated these compounds in two functional read-outs that together measure that the probe has entered a live cancer cell and once inside the cell, has bound to a substantial fraction of oncogenic Hsp90 molecules. Specifically, K562 is a human leukemia cell line dependent on Hsp90 for survival. Thus, in such cells, occupancy of Hsp90’s regulatory pocket by small molecules results in inhibition of its cancer-sheltering properties, leading to cell-growth inhibition associated with degradation of Hsp90-chaperoned onco-proteins. These, such as is the case for Raf-1 in K562 cells, become ubiquitinated and targeted for proteasomal degradation leading to a decrease in their steady-state levels (Figure 2a, Raf-1).
Growth inhibition assay. The effect of compounds on cell growth was evaluated with the Alamar Blue assay. In summary, K562 cells were plated at 20,000 cells/well on Costar 96-well plates. Treatment with the probes added at the indicated concentrations in triplicate wells was performed on the subsequent day and lasted for 72 h. The Alamar Blue reagent resazurin (440 μM stock) was added at the end of the treatment to result in a final concentration of 50 μM. Plates were read 6 h later by using the Analyst GT instrument (Fluorescence intensity mode, excitation 530 nm, emission 580 nm, with 560 nm dichroic mirror). Results were analyzed in SoftMax Pro. The percentage of cell growth inhibition was calculated by comparing fluorescence readings obtained from treated versus control cells, accounting for the initial cell population (time zero). The IC50 was calculated as the drug concentration that inhibits cell growth by 50%.
On the technique in general: Resazurin is reduced to fluorescent resorufin, in cell work by metabolically active cells.

The target of another assay is Grp94 (Homo sapiens, UniProt P14625). Conditions: ref Chiosis G, personal communication; cited from earlier work.
Sequence of Grp94 (P14625 22-803, species assumed): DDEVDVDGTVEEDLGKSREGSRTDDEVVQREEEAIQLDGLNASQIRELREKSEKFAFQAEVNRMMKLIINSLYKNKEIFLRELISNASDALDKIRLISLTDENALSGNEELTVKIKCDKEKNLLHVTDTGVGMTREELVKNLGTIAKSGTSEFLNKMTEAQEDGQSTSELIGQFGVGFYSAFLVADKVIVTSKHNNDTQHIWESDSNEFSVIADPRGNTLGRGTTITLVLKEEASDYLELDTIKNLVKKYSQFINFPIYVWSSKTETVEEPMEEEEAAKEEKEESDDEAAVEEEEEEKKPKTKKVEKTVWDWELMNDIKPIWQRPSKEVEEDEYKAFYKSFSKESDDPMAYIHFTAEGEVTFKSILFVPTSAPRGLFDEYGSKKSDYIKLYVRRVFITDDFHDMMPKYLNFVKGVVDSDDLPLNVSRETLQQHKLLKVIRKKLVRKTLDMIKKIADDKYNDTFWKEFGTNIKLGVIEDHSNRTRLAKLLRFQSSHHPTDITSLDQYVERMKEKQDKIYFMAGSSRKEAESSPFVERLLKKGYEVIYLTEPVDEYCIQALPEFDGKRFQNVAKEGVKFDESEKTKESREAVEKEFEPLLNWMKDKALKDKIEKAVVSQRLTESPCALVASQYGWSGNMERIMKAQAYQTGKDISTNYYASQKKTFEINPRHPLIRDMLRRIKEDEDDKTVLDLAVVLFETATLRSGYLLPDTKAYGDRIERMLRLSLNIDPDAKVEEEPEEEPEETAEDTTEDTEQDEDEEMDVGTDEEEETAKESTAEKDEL

As for `CC(C)NCCCn1c(Sc2cc3c(cc2I)OCO3)nc2c(N)ncnc21` [1a, PU-H71], the EC50 in assay [1] amounted to 24.5 nM. Further, the IC50 in the assay with K562 cells was determined as 80 nM. The “Binding to cytosolic and ER Hsp90 paralogues” value at Grp94 is “binds equally well to the cytosolic and the ER paralogues”.

Usually IC50 stands for the midpoint of a concentration-inhibition curve.

The values above are taken from paper PMC3628991, “Synthesis and evaluation of cell-permeable biotinylated PU-H71 derivatives as tumor Hsp90 probes” (Beilstein Journal of Organic Chemistry, 2013).
